# Experimental data published in ChEMBL document CHEMBL5291721, “A preclinical secondary pharmacology resource illuminates target-adverse drug reaction associations of marketed drugs” (Nat Commun, 2023).
# What was measured:
# [1] = molecular target: T1, Alpha-1A adrenergic receptor (Homo sapiens, UniProt P35348)
# T1 sequence (P35348 whole entry): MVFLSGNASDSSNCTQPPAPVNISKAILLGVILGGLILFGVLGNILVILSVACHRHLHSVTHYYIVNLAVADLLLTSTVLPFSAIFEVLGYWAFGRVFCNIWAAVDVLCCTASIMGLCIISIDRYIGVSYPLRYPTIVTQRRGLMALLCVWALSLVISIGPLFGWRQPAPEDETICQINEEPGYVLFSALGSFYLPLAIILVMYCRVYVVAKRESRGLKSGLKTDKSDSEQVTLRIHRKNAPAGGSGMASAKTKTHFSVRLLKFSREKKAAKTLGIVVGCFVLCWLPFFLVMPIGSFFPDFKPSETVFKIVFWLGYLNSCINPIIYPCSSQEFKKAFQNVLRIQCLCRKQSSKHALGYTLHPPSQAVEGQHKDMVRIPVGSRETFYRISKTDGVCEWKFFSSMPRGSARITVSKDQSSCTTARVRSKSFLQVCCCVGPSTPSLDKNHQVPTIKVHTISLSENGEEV
# Progesterone receptor = molecular target: T2, Progesterone receptor (Homo sapiens, UniProt P06401)
# T2 sequence (P06401 whole entry): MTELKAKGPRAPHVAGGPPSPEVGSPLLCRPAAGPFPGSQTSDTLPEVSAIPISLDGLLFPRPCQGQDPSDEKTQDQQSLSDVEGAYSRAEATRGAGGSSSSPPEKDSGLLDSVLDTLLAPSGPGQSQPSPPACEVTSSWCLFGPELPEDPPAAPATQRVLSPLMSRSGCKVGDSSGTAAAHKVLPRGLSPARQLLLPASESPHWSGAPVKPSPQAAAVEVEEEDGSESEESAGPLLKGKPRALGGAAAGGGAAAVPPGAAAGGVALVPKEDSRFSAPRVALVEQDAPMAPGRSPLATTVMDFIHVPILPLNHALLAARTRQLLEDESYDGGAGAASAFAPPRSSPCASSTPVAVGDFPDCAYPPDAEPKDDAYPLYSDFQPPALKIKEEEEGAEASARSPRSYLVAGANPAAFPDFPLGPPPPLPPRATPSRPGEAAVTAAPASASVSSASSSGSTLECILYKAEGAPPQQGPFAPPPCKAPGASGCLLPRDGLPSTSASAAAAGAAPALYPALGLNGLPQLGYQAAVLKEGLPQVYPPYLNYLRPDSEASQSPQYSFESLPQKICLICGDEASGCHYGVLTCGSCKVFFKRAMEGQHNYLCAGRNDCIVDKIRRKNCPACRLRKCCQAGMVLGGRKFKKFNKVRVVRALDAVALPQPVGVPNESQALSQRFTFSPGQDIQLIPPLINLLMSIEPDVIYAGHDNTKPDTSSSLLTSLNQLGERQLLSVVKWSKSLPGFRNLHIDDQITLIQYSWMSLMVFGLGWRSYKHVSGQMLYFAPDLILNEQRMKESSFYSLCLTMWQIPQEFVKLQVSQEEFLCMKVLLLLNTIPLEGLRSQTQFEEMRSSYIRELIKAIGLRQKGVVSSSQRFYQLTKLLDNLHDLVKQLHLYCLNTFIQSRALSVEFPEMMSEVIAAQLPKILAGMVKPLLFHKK
# Mu-type opioid receptor = Mu-type opioid receptor (Homo sapiens, UniProt P35372)
# [2] = molecular target: T3, 5-hydroxytryptamine receptor 1A (Homo sapiens, UniProt P08908)
# T3 sequence (P08908 whole entry): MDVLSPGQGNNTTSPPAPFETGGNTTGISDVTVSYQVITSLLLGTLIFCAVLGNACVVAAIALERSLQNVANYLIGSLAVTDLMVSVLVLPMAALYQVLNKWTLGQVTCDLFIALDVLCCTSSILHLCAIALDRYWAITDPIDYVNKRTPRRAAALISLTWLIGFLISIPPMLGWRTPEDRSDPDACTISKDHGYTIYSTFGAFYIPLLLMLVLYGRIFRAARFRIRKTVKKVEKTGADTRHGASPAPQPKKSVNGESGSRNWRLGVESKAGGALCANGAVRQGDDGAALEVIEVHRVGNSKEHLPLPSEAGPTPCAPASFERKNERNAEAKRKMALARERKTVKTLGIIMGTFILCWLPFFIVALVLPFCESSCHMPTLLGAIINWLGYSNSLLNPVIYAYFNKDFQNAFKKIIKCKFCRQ
# [3] = molecular target: T4, Corticotropin-releasing factor receptor 2 (Homo sapiens, UniProt Q13324)
# T4 sequence (Q13324 whole entry): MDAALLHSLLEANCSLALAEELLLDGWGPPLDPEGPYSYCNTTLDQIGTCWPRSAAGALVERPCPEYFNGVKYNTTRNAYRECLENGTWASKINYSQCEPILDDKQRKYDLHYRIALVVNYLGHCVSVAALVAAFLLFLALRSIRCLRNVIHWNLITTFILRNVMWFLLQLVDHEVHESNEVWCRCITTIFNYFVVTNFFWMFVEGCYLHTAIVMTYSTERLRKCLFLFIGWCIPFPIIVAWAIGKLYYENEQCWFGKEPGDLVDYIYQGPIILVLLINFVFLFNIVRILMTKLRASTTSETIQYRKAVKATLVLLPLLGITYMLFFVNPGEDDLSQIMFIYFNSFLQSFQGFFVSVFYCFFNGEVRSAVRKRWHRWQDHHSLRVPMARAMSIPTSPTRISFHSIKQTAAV
# [4] = molecular target: T5, Muscarinic acetylcholine receptor M2 (Homo sapiens, UniProt P08172)
# T5 sequence (P08172 whole entry): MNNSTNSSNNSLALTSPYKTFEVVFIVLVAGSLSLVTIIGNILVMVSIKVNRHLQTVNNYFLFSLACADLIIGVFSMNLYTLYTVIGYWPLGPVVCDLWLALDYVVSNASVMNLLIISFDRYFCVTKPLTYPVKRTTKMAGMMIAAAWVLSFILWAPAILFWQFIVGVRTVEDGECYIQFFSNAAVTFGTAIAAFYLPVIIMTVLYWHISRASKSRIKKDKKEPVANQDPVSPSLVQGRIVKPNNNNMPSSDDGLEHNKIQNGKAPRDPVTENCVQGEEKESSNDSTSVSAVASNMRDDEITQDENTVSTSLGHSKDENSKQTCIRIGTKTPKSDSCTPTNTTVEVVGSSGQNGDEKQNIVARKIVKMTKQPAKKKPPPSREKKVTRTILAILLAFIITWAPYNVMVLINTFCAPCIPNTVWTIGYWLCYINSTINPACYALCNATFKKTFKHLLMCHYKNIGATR
# [5] = molecular target: Beta-3 adrenergic receptor (Homo sapiens, UniProt P13945)
# Further: assay procedure not described here.
# Beta-3 adrenergic receptor, sequence (P13945 whole entry): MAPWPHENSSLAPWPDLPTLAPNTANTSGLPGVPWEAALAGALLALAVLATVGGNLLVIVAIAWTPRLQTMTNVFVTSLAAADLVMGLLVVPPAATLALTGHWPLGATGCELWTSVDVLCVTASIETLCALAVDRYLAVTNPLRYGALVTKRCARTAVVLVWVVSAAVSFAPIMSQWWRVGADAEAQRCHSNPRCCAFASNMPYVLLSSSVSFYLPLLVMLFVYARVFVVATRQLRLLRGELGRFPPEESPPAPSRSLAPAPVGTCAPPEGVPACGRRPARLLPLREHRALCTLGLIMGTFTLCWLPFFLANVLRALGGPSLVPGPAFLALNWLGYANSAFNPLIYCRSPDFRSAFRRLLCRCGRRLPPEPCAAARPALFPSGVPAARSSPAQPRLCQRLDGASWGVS
# Mu-type opioid receptor, sequence (P35372 whole entry): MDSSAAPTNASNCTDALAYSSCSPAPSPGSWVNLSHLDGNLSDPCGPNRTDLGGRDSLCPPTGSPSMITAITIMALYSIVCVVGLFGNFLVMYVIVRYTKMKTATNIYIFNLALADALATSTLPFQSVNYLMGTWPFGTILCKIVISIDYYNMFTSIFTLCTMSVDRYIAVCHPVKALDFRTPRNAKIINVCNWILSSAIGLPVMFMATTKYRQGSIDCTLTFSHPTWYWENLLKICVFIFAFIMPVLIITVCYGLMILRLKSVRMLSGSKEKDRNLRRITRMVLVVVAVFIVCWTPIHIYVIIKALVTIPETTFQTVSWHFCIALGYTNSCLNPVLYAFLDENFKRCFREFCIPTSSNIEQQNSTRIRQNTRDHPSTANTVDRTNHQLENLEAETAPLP
structure (smiles),measurement,setting,value
COc1ccc2cccc(CCNC(C)=O)c2c1 [AGOMELATINE],AC50,[1],> 10 µM
same,AC50,Progesterone receptor,> 30 µM
same,AC50,Mu-type opioid receptor,> 30 µM
same,AC50,[2],> 10 µM
same,AC50,[3],> 30 µM
same,AC50,[4],> 10 µM
same,AC50,[5],> 30 µM
NC(CO)C(=O)NNCc1ccc(O)c(O)c1O (stereo unspecified) [BENSERAZIDE],AC50,[1],> 10 µM
same,AC50,Progesterone receptor,> 30 µM
same,AC50,Mu-type opioid receptor,> 10 µM
same,AC50,[2],> 10 µM
same,AC50,[3],> 30 µM
same,AC50,[4],> 10 µM
same,AC50,[5],> 30 µM
CN(C)C(=O)OC1N=C(c2ccccc2)c2cc(Cl)ccc2N(C)C1=O (stereo unspecified) [CAMAZEPAM],AC50,[1],> 10 µM
same,AC50,Progesterone receptor,> 30 µM
same,AC50,Mu-type opioid receptor,> 10 µM
same,AC50,[2],> 10 µM
same,AC50,[3],> 30 µM
same,AC50,[4],> 10 µM
same,AC50,[5],> 30 µM
CN[C@@H](C)[C@H](O)c1ccccc1 [EPHEDRINE],AC50,[1],> 10 µM
same,AC50,Progesterone receptor,> 30 µM
same,AC50,Mu-type opioid receptor,> 30 µM
same,AC50,[2],> 10 µM
same,AC50,[3],> 30 µM
same,AC50,[4],> 10 µM
same,AC50,[5],> 30 µM
Cc1cc(-c2ccccc2)nnc1NCCN1CCOCC1 [MINAPRINE],AC50,[1],> 10 µM
same,AC50,Progesterone receptor,> 30 µM
same,AC50,Mu-type opioid receptor,> 30 µM
same,AC50,[2],> 10 µM
same,AC50,[3],> 30 µM
same,AC50,[4],> 10 µM
same,AC50,[5],> 30 µM
NC(=O)C[S+]([O-])C(c1ccccc1)c1ccccc1 (stereo unspecified) [MODAFINIL],AC50,[1],> 10 µM
same,AC50,Progesterone receptor,> 30 µM
same,AC50,Mu-type opioid receptor,> 10 µM
same,AC50,[2],> 10 µM
same,AC50,[3],> 30 µM
same,AC50,[4],> 10 µM
same,AC50,[5],> 30 µM
O=C(O)CCCc1ccccc1 [PHENYLBUTANOIC ACID],AC50,[1],14 µM
same,AC50,Progesterone receptor,> 30 µM
same,AC50,Mu-type opioid receptor,> 10 µM
same,AC50,[2],> 10 µM
same,AC50,[3],> 30 µM
same,AC50,[4],> 10 µM
same,AC50,[5],> 30 µM
Cc1ccc(-c2nc3ccc(C)cn3c2CC(=O)N(C)C)cc1 [ZOLPIDEM],AC50,[1],6.76 µM
same,AC50,Progesterone receptor,> 30 µM
same,AC50,Mu-type opioid receptor,> 10 µM
same,AC50,[2],> 10 µM
same,AC50,[3],> 30 µM
same,AC50,[4],> 10 µM
same,AC50,[5],> 30 µM
